# Values joined by “and” are separate entries in the source; they are usually repeats but may differ in a detail not shown here. Identical values can stand only once.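 Five compound concentrations were applied to cells in 96-well plates for 48 hours; endpoints were derived by simple linear interpolation of the resulting dose-response curve. At the GI50, growth is halved. TGI: total growth inhibition.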
# System: MDA-MB-468 breast
# Assay: NCI tumour cell line growth inhibition, 48 h
Structure (SMILES),GI50,TGI
c1ccc(Cn2cnc3ccc(-c4nc(-c5ccc6c(c5)ncn6C5CCCCC5)cn5ccnc45)cc32)cc1,1920 nM,4430 nM
NC(=O)C1(N2CCCCC2)CCN(CCCC(=O)c2ccc(F)cc2)CC1,20.4 nM,68.2 nM
Cc1cc(Nc2nc(SCc3ccc(C(=O)Nc4ccc(F)cc4N)cc3)nn3cccc23)n[nH]1,432 nM,36000 nM
CCC1=C[C@@H]2CN(C1)Cc1c([nH]c3ccccc13)[C@@](C(=O)OC)(c1cc3c(cc1OC)N(C)[C@H]1[C@@](O)(C(=O)OC)[C@H](OC(C)=O)[C@]4(CC)[C@@H]5C[C@@H]5CN5CC[C@]31[C@@H]54)C2,< 5 nM,5740 nM
Cn1c(/C(C#N)=C/c2ccc3ccccc3c2)cc2ccccc21,422 nM,> 100000 nM
O=C(/C=C/c1ccccc1)CC(c1ccccc1)N1CCOCC1 (stereo not given),2050 nM,5560 nM
Cc1ncc(C(=O)Nc2ccc(CN3CCN(C)CC3)c(C(F)(F)F)c2)cc1C#Cc1cnc(NC2CC2)c2ncccc12,3920 nM,9320 nM
COc1ccccc1/C=C/C(=O)/C=C/c1ccccc1O,530 nM,2060 nM
Cc1nc(Nc2n[nH]c3c2CN(C(=O)N[C@H](CN(C)C)c2ccccc2)C3(C)C)c2sccc2n1,247 nM and 226 nM,2260 nM and 2470 nM
Cn1c([N+](=O)[O-])cnc1/C=C1\Oc2cc(Cl)ccc2C1=O,3150 nM,15200 nM
Cn1cc(-c2csc(-c3cn(C)c4ccccc34)n2)c2cnccc21,265 nM,866 nM
COc1ccc(-c2nnc(N3CCN(C(=O)CN4CCN(c5ccc(OC)cc5)CC4)CC3)nc2-c2ccc(OC)cc2)cc1,4230 nM,21700 nM
NC(=O)c1cccc(Nc2nccc(Nc3cccc(F)c3)n2)c1,3880 nM,12800 nM
C=C1CC2(OC1=O)C(=O)N(CCCN1C(=O)C3(CC(=C)C(=O)O3)c3ccccc31)c1ccccc12 (stereo not given),1280 nM,3250 nM
CCCCCCCCCCCCCCCCCCNC(=O)[C@H]1CSC(c2cccs2)N1 (stereo not given in full),9320 nM,> 50000 nM
O=C1C(Cl)=C(Nc2ccccc2)C(=O)c2ccccc21,1520 nM,3100 nM
CC1(C)N=C(N)N=C(N)N1c1ccc(OCC(=O)Nc2ccccc2)c(Cl)c1,3050 nM,> 100000 nM
C[C@H](Cn1ncnn1)Nc1ncc2cc(Oc3ccc(F)cc3F)c(=O)n(C)c2n1,> 25000 nM,> 25000 nM
COCCOCCOCc1n(Cc2ccc3ccccc3n2)c2ccccc2[n+]1Cc1ccc2ccccc2c1,259 nM,996 nM
CCC(=C(c1ccc(OCCCN(C)C)cc1)c1ccc(OCCCN(C)C)cc1)c1ccc(Cl)cc1,1150 nM,3740 nM

# From PubChem BioAssay (NCI)
